Patent US20110124678A1, “TREATMENT WITH ALPHA 7-SELECTIVE LIGANDS” (Targacept, Inc., priority 2007, published 2011)
“Also recorded” adds a separate entry of the source.

Key:
[1] = tested on: db/db mice; test: metabolic phenotyping of obese db/db mice (PTP1B wild type or knockout) treated with α7 agonist; format: in vivo; details: for Glucose Tolerance Test (GTT): fat db/db PTP-1B WT mice; for plasma TNFα / plasma blood glucose (BG) / plasma glycosylated hemoglobin (Hb1ac) / plasma triglycerides (TG) / body mass / food consumption: fat db/db mice; for plasma triglycerides (TG): PTP-1B wild type; for body mass / food consumption: increase vs lean; for weight gain: obese db− mice, seven weeks of treatment; for food intake decrease induced by the α7 agonist / treatment-induced decrease in plasma glucose: antagonist or inhibitor given with α7 agonist; for body weight gain / weight loss induced by the α7 agonist: antagonist or inhibitor given with α7 agonist (MLA 3 mg/kg gavage; AG-490 1 mg/kg IP)
Text: Body Weight Gain and Food Intake. Several protein tyrosine phosphatases (PTPases) such as PTP1B, LAR, SHP-2 and PTEN have been implicated in the development of insulin resistance.
α7 agonist on Obesity. Animal Models: Parental strains of mice used in these studies were the leptin receptor deficient db/db mice on a C57BL6 background obtained from Jackson Laboratories and PTP1B-null mice on a mixed C57BL6/Balb C background from Dr. Michel Tremblay at the Cancer Institute at McGill University in Montreal, Canada. Because obese db/db mice are infertile, mice were generated as dual heterozygotes, heterozygous for both the mutant leptin receptor and the deleted PTP1B. Dual heterozygotes were interbred, producing 1:4 obese mice and 1:4 PTP-1B null mice. In this breeding configuration 1:16 were dual KO mice. In the fourth generation, mice heterozygous for both genes were bred to PTP-1B null mice heterozygous for the mutant db allele. In this breeding configuration 1:4 mice were obese and 1:8 were dual KO mice. For reasons of parsimony, heterozygotes were preferred to wild-types over controls. Dual heterozygous littermates were used as lean controls and littermates heterozygous for db were used as lean PTP1B KO controls.
Mouse genotyping: At 3 weeks of age, DNA was obtained by tail clip. The genomic DNA from tail clip was used to screen for the presence of the mutant leptin receptor and deletion cassette of PTP-1B using the Polymerase Chain Reaction. Specific genotypes were determining by resolving PCR products with agarose gel electrophoresis. Deletion of PTP-1B was verified by Western analysis using an anti-PTP-1B antibody from Upstate Biotechnology.
In selected cohorts, the α7 antagonist MLA was also given via gavage, concurrently, at 3 mg/kg daily. The JAK2 kinase inhibitor (AG-490) was administered intraperitoneally (IP) at 1 mg/kg daily. Fasting glucose was measured once a week after food withdrawal, with a Precision XL glucometer using tail vein bleeding. HbA1c levels were also measured from these samples with the A1C kit from Metrika, Inc. To assess glucose tolerance, the mice were anesthetized with 2% isoflurane and the left carotid artery and jugular vein cannulated after an overnight fast. A 10 mg bolus of glucose was injected intravenously (iv) via the jugular vein and blood glucose measured every 5 minutes for 40 minutes in a drop of blood from the carotid line. For measurements of blood plasma analytes, a separate group of fasted mice were anesthetized by isoflurane in a rapid induction chamber and swiftly decapitated. Blood was collected in heparin and rapidly centrifuged at 4° C. to remove cells and to obtain plasma, and the samples were frozen for later analyses. Plasma TNF-α concentrations were determined using ELISA assay kits from eBioscience and plasma triglyceride levels were determined using the L-Type TG H test (Wako Diagnostics), an in vitro assay for the quantitative determination of triglycerides in serum or plasma. All data are expressed as mean and SEM. Differences among all groups were compared by One Way ANOVA.

[2] = molecular target: T1, human α7 nicotinic receptor (Homo sapiens, UniProt P36544); test: electrophysiology functional assay in Xenopus laevis oocytes; format: cell-based; details: Xenopus laevis oocytes transiently expressing human α7 nicotinic receptor
T1 construct: expressed in transfected cells; host or cells: Xenopus laevis oocytes

[3] = tested on: db/db mice; test: simvastatin and Compound A in db/db mice, metabolic phenotyping; format: in vivo; details: fat db/db mice, statin study
Method: Animal Models and Metabolic Phenotyping: […] Growth rates of mice were generated by measuring body weight twice weekly for 10 weeks. Daily food intake was measured in mice metabolic cages obtained from Fisher. To assess glucose tolerance, mice were anesthetized with 2% isoflurane and the left carotid artery and jugular vein cannulated after an overnite fast. Fasting blood glucose was assessed as the initial two measurements in the anesthetized mice. A second measurement was used to determine HbA1c levels using the […] kit from Metrika Inc. A 10 mg bolus of glucose was injected into each mouse and blood glucose measure by a drop of blood from the carotid line every 5 minutes for 40 minutes. Glucose was measured with a Precision XL glucometer. At the end of the experiment mice were euthanized by isoflurane overdose. In a second group of mice, fasted mice were anesthetized by isofluorance in a rapid induction chamber and swiftly decapitated. Trunk blood was collected in heparin and rapidly centrifuged to remove blood cells and obtain plasma. Samples were then collected for analyses. Plasma cholesterol, free fatty acids and triglycerides were determined using colorimetric assays from Wako Chemical while plasma TNFα concentration was determined using ELISA assay kits from eBioscience.

[4] = obese mice, antagonist given with α7 agonist
[5] = difference between genotypes under treatment

T1 sequence (P36544 23-502): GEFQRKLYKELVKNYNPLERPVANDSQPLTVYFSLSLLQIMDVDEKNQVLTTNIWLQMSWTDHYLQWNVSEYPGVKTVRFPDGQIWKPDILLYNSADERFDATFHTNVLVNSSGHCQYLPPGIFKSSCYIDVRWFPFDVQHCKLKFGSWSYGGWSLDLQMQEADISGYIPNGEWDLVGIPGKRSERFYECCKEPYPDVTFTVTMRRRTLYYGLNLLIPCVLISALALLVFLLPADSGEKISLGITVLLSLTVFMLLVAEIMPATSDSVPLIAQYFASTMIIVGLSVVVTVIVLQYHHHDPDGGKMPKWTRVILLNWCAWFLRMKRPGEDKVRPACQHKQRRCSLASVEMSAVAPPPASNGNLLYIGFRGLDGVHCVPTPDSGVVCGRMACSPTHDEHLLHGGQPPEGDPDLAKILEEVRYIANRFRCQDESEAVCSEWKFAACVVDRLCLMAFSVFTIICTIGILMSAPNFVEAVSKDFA

SMILES | Glucose Tolerance Test (GTT) [1] | plasma TNFα [1] | plasma blood glucose (BG) [1] | plasma glycosylated hemoglobin (Hb1ac) [1] | plasma triglycerides (TG) [1] | body mass [1] | food consumption [1] | weight gain [1] | food intake decrease induced by the α7 agonist ([1]; obese mice) | treatment-induced decrease in plasma glucose ([1]; obese mice) | body weight gain / weight loss induced by the α7 agonist ([1]; obese mice) | other results
O=C(N[C@@H]1C2CCN(CC2)[C@H]1Cc1cccnc1)c1ccc(-c2ccccn2)s1 [Compound B, (2S,3R)—N-(2-((3-pyridinyl)methyl)-1-azabicyclo[2.2.2]oct-3-yl)-5-(2-pyridinyl)thiophene-2-carboxamide] | normalize insulin resistance glucose tolerance test | reduce pro-inflammatory cytokines; also recorded: significantly inhibited | normalize glucose levels; also recorded: significantly inhibited | decrease glycated hemoglobin; also recorded: significantly inhibited | reduce triglycerides; also recorded: significantly inhibited | significantly inhibited | significantly inhibited | reduce weight gain | – | – | – | –
N#C/C(=C/c1ccc(O)c(O)c1)C(=O)NCc1ccccc1 [AG-490, reference compound] | – | – | – | – | – | – | – | – | significantly inhibited; also recorded: partially inhibits effects of Compound A | significantly prevented | significantly inhibited | –
CCN1C[C@]2(COC(=O)c3ccccc3N3C(=O)C[C@H](C)C3=O)CC[C@H](OC)[C@@]34[C@@H]5C[C@H]6[C@H](OC)[C@@H]5[C@](O)(C[C@@H]6OC)[C@](O)([C@@H](OC)[C@H]23)[C@@H]14 [MLA, reference compound] | – | – | – | – | – | – | – | – | no significant differences | no significant decrease in plasma glucose | no significant differences | decrease of plasma TNF-α by the α7 agonist [1, 4]: blocked; increased insulin sensitivity induced by the α7 agonist [1, 4]: abrogated; also recorded: suppressed; normalization of triglycerides by the α7 agonist [1, 4]: blocked
O=C(N[C@@H]1C2CCN(CC2)[C@H]1Cc1cccnc1)c1cc2ccccc2o1 (single isomer, unassigned) [Compound C] | normalize insulin resistance glucose tolerance test; also recorded: significant increase in deposition | reduce pro-inflammatory cytokines; also recorded: significantly inhibited | normalize glucose levels; also recorded: significantly inhibited | decrease glycated hemoglobin; also recorded: significantly inhibited | reduce triglycerides; also recorded: significantly inhibited | significantly inhibited | significantly inhibited | reduce weight gain | – | – | – | Emax [2]: > 50%; body mass, fat wild type vs fat PTP-1B KO [1, 5]: no significant difference; food consumption, fat wild type vs fat PTP-1B KO [1, 5]: no significant difference; plasma blood glucose, fat wild type vs fat PTP-1B KO [1, 5]: no significant difference
Cc1ccc(C(=O)N[C@@H]2C3CCN(CC3)[C@H]2Cc2cccnc2)s1 [Compound A, 5-methyl-N-[(2S,3R)-2-(pyridin-3-ylmethyl)-1-azabicyclo[2.2.2]oct-3-yl]thiophene-2-carboxamide] | normalize insulin resistance glucose tolerance test | reduce pro-inflammatory cytokines | normalize glucose levels | decrease glycated hemoglobin | reduce triglycerides | – | – | reduce weight gain | – | – | – | % glycated hemoglobin (% Hb1ac) [3]: significantly inhibited; body mass [3]: significantly inhibited; food consumption [3]: significantly inhibited; plasma TNFα [3]: significantly inhibited; plasma blood glucose (BG) [3]: significantly inhibited; plasma cholesterol (Chol) [3]: significantly inhibited; plasma triglycerides (TG) [3]: significantly inhibited
